pIC50: −log10 of the molar value. Entries after “also recorded” stand apart in the source; their conditions may differ. Counter-ions that a name gives are not always drawn. Like-named read-outs stand apart in the source and are kept apart here.
Key:
[1] = tested on: SARS-CoV-2 spike pseudotyped particles (WA1 + D614G) entry into Calu-3 cells; assay type: cell-based; settings: for AC50: read-out: SARS-CoV-2 PP (WA1 + D614G) AC50
[2] = tested on: SARS-CoV-2 spike pseudotyped particles (Delta variant B.1.617.2) entry into Calu-3 cells; assay: microbe, parasite or virus in culture; assay type: cell-based; settings: for Emax: Severe acute respiratory syndrome coronavirus 2, Calu-3, read-out: SARS-CoV-2 PP (Delta) Max Response; for AC50: 48 h, N/D = Not Detected, read-out: SARS-CoV-2 PP (Delta) AC50; for inhibition of pseudotyped particle entry: variant not stated; for SARS-CoV-2 PP (Delta) Max Response: PP wells 0%, bald PP −100%
[3] = Calu-3 cells, read-out: IC50 Delta pseudotyped particle entry
[4] = Severe acute respiratory syndrome coronavirus 2, Calu-3, read-out: IC50 Delta pseudotyped particle entry, Calu-3 cells
[5] = Severe acute respiratory syndrome coronavirus 2, Calu-3 cells
[6] = Severe acute respiratory syndrome coronavirus 2, Calu-3, variant not given, matches Delta values, read-out: IC50 blocking of entry into Calu-3 cells using pseudotyped particles with SARS-CoV-2 spike protein

Compound: N=C(N)c1ccc2cc(OC(=O)c3ccc(N=C(N)N)cc3)ccc2c1 [Nafamostat mesilate]
- SARS-CoV-2 PP (WA1 + D614G) Max Response [1]: -100%
- pIC50 [2, 3]: 8.85
- pIC50 [2, 4]: 8.85
- Emax [2]: -100%
- AC50 [2, 5]: 0.0014 µM

Compound: O=c1ccc2ccc(O)cc2o1 [7-Hydroxycoumarin]
- inhibition of pseudotyped particle entry ([2]; Calu-3 cells): lack of activity; also recorded: nor any inhibition of pseudotyped particle entry

Compound: Dibromopropamidine Dihydrochloride
- SARS-CoV-2 PP (WA1 + D614G) Max Response [1]: -44%
- AC50 [1]: 19.5 µM
- AC50 ([2]; Calu-3 cells): 19.2 µM
- SARS-CoV-2 PP (Delta) Max Response ([2]; Calu-3 cells): -49%

Compound: COC(=O)[C@H](Cc1cccc(C(=N)N)c1)[C@@H](C)NC(=O)c1ccc(-c2cc[n+]([O-])cc2)cc1 [Otamixaban]
- SARS-CoV-2 PP (WA1 + D614G) Max Response [1]: -50%
- AC50 [1]: 20 µM
- Emax [2]: 54%
- AC50 [2, 5]: 18 µM

Compound: Marizomib / Salinosporamide A
- SARS-CoV-2 PP (WA1 + D614G) Max Response [1]: -100%
- AC50 [1]: < 0.05 µM
- AC50 ([2]; Calu-3 cells): < 0.05 µM
- SARS-CoV-2 PP (Delta) Max Response ([2]; Calu-3 cells): -100%

Compound: G-007-LK
- SARS-CoV-2 PP (WA1 + D614G) Max Response [1]: -73%
- AC50 [1]: 0.5 µM
- AC50 ([2]; Calu-3 cells): 1 µM
- SARS-CoV-2 PP (Delta) Max Response ([2]; Calu-3 cells): -67%

Compound: CC(C)C[C@H](NC(=O)[C@H](Cc1ccccc1)NC(=O)c1cnccn1)B(O)O [Bortezomib]
- SARS-CoV-2 PP (WA1 + D614G) Max Response [1]: -100%
- AC50 [1]: < 0.05 µM
- pIC50 ([2]; Severe acute respiratory syndrome coronavirus 2, Calu-3, Calu-3 cells, apparent, due to cytotoxicity, read-out: IC50 inhibition of viral entry (variant not stated)): > 7.30
- Emax [2]: -100%
- AC50 [2, 5]: < 0.05 µM

Compound: N=C(N)c1ccc2nc(-c3cc(CC(=O)N[C@@H](CC(=O)O)C(=O)O)cc(-c4cc(S(N)(=O)=O)ccc4O)c3O)[nH]c2c1 [PCI-27483]
- SARS-CoV-2 PP (WA1 + D614G) Max Response [1]: -66%
- AC50 [1]: 16.5 µM
- Emax [2]: -66%
- AC50 [2, 5]: 15.8 µM

Compound: COC(=O)N[C@H](C(=O)N1CCC[C@H]1c1nc(-c2ccc(-c3ccc(-c4c[nH]c([C@@H]5CCCN5C(=O)[C@@H](NC(=O)OC)C(C)C)n4)cc3)cc2)c[nH]1)C(C)C [Daclatasvir dihydrochloride]
- SARS-CoV-2 PP (WA1 + D614G) Max Response [1]: -100%
- AC50 [1]: 39 µM
- Emax [2]: -100%
- AC50 [2, 5]: 32.9 µM

Compound: N=C(N)c1cccc(CC(NS(=O)(=O)c2cccc(-c3ccc(Cl)cc3Cl)c2)C(=O)N2CCC(CCN)CC2)c1 (centres unmarked) [Cmpd 92 (Meyer)]
- SARS-CoV-2 PP (WA1 + D614G) Max Response [1]: -70%
- AC50 [1]: 2.05 µM
- Emax [2]: 92%
- pIC50 [2, 6]: 5.40
- AC50 [2, 5]: 3.98 µM

Compound: N=C(N)c1cccc(CC(NS(=O)(=O)c2cccc(-c3ccc(Cl)cc3Cl)c2)C(=O)N2CCC(NC(=O)NC3CCCCC3)CC2)c1 (centres unmarked) [Cmpd 114 (Meyer)]
- SARS-CoV-2 PP (WA1 + D614G) Max Response [1]: -88%
- AC50 [1]: 5.35 µM
- Emax [2]: 99%
- pIC50 [2, 6]: 4.82
- AC50 [2, 5]: 15.3 µM

Compound: NC[C@H]1CC[C@H](C(=O)Oc2ccc(CCC(=O)O)cc2)CC1 [Cetraxate HCl]
- Emax [2]: 30%
- AC50 [2, 5]: 23.3 µM

Compound: CN(C)C(=O)COC(=O)Cc1ccc(OC(=O)c2ccc(NC(=N)N)cc2)cc1 [Camostat]
- SARS-CoV-2 PP (WA1 + D614G) Max Response [1]: -95%
- pIC50 ([1]; read-out: IC50 WA1 + D614G pseudotyped particle entry): 7.30
- AC50 [1]: 0.05 µM
- pIC50 [2, 3]: 7.23
- pIC50 [2, 4]: 7.23
- Emax [2]: -92%
- AC50 [2, 5]: 0.059 µM

Compound: CCOC(=O)c1ccc(OC(=O)CCCCCNC(=N)N)cc1 [Gabexate mesilate]
- inhibition of pseudotyped particle entry ([2]; Calu-3 cells): inactive

Compound: AGN194310
- SARS-CoV-2 PP (WA1 + D614G) Max Response [1]: -87%
- AC50 [1]: 22 µM
- AC50 ([2]; Calu-3 cells): 38.4 µM
- SARS-CoV-2 PP (Delta) Max Response ([2]; Calu-3 cells): -86%
